Columns and labels:
[1] = molecular target: T1, H2-Kd (Mus musculus, UniProt P01902); experiment: In vitro pMHC binding assay; details: refolding with 10 μM peptide, 4°C, 72 hours; ELISA; result in words
[2] = molecular target: T1, H2-Kd; details: result in words; cited from earlier work

- In vitro binding affinity to H2-Kd [1]: significantly high
Sequence: YIRPFETKVK
- In silico-predicted MHC binding [2]: poor in silico-predicted MHC binder

Reference: publication PMC10025090 (iScience, 2023)
